Measured values from patent US20090111781A1, “Use of Cymipristone Type Compounds in Aids Treatment” (SHANGHAI THREE-ALLIANCE BIOTECHNOLOGIES CO., LTD., priority 2005, published 2009).
Values after ≈ are worked out from the molar mass of the structure shown.

Columns and labels:
[1] = tested on: HIV-1 AZT-sensitive strain 018a P24 antigen; experiment: Inhibition of HIV-1 018a P24 antigen in PBMC cell culture; format: cell-based; settings: for EC50: Human immunodeficiency virus 1, PBMC, 2 h, administration after adsorbing 2 hours
Description: (§1) Collect cells with curette, infect cells with 10^−2 AZT sensitive (018a) or AZT resistant (018c) virus strain liquid, and adsorb for 2 hours, Wash off unabsorbed virus with 1640 culture medium without serum, prepare cells infected by virus to 1×10^6/ml with culture solution, and inoculate on 96-pore culture plate, 100 μl/pore. […] Set cell control group and virus infected cell control group. Incubate under 37° C. and 5% CO2. On the fourth day (96 hours), pipette out the supernatant liquid and store under −20° C. for determination of HIV-1 P24 antigen titer and calculation of drug inhibitory action. Add MTT staining to cells for determination of cytotoxicity. Determination of cytotoxicity by MTT staining: Add 10 μl of 5 mg/ml MTT stain into each pore, continue to incubate under 37° C., 5% CO2 and saturated humidity for 4 hours. […] Determine the HIV-1 P24 antigen titer according to the operation procedure provided by the HIV-1 P24 antigen reagent kit. Compare the drug-added group with virus control group. […] Calculation method of 50% toxic concentration (CC50), 50% effective concentration (EC50) and selection index (SI):
(§2) (3) Calculation Method of Selection Index (SI) on HIV-1 P24 Antigen in Cell Culture SI=CC50/EC50

in vitro = settings: human
Description: as §1, with “(SI): […]” for “(SI):”

[2] = MTT toxicity on PBMC infected by HIV-1 AZT-resistant strain 018c; settings: human
Description: as §1, with “(SI): […]” for “(SI):”

[3] = tested on: HIV-1 AZT-resistant strain 018c P24 antigen; experiment: Inhibition of HIV-1 018c P24 antigen in PBMC cell culture; format: cell-based; settings: 018c; for EC50: Human immunodeficiency virus 1, PBMC, 2 h, PBMC, administration after adsorbing 2 hours; for SI: SI=CC50/EC50
Description: as §1, §2

[4] = target: T1, glucocorticoid receptor of rat hepatic cytoplasm (Rattus norvegicus, UniProt P06536); experiment: Competition inhibition of [3H]-dexamethasone binding in rat hepatic cytoplasm; settings: read-out: Inhibition rate on binding of [3H]-dexamethasone
T1 construct: centrifuge at 175000 g for 1 hour, and take out the supernatant liquid as reserve; from tissue; host or cells: liver cytosol (175000 g supernatant) of adrenalectomised female SD rats
T1 sequence (P06536 1-795): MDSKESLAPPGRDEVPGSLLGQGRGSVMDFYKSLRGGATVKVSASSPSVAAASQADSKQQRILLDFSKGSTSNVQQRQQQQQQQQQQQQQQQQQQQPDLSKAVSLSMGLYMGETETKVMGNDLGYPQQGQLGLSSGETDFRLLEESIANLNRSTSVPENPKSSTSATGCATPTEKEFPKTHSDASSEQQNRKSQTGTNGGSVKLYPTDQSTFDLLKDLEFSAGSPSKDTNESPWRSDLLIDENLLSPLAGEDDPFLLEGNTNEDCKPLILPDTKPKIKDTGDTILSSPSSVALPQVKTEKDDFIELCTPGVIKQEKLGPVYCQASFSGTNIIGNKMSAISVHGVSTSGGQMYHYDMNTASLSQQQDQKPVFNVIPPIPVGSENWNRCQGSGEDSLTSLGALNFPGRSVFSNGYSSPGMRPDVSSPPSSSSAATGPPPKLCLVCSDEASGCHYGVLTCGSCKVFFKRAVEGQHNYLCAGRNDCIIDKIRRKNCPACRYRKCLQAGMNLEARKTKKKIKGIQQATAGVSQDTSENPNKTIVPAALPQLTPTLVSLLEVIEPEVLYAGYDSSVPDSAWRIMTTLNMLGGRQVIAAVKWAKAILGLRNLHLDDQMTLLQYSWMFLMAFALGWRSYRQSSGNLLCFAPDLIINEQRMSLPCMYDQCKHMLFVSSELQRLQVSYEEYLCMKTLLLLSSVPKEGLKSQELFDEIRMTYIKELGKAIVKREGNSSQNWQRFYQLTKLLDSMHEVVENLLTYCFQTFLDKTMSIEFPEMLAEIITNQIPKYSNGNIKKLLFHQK
Description: Clean female SD rats, body weight 200-250 g, are fed with certain quantity of food and freely drink water. The temperature is controlled at about 24° C. and an illumination cycle are for 11 hours by day and 13 hours at night. All animals are observed for 1 week before experiment. Incisions are made on two sides below arch of ribs on dorsal position of rats to extirpate adrenal glands. After operation, the rats are fed with physiological saline to maintain water-electrolyte balance. On the third day after operation, animals are acutely executed. The liver is taken out immediately and placed in ice cold buffer solution; the blood should be washed off as much as possible. Take certain quantity of tissue, add buffer solution (1:4), cut the tissue with scissors, intermittently homogenize the tissue under low temperature, centrifuge at 175000 g for 1 hour, and take out the supernatant liquid as reserve. […] Then carry out the competition inhibition experiment.

thymus gland cells = experiment: Anti-glucocorticoid activity test, [3H]-TdR incorporation in rat thymus gland cells; format: cell-based; settings: dexamethasone 6×10^−8 mol/L used singly
Description: Clean female SD rats, body weight 200-250 g, are fed with certain quantity of food and freely drink water. The temperature is controlled at about 24° C. and an illumination cycle are for 11 hours by day and 13 hours at night. All animals are observed for 1 week before experiment. Rats are anesthetized with ethyl ether. Incisions are made on two sides below costal arch of ribs on dorsal position of rats to extirpate adrenal glands. The rats are fed with physiological saline after operation. On the seventh day, animals are acutely executed. Take out thymus gland to place in to HBSS buffer solution, wash twice, remove connective tissue, cut the tissue with scissors, lightly grind with homogenizer, filter with three layers of gauze, and centrifuge the filtrate for 5 min (500 rpm). Wash the precipitated cells twice with HBSS, re-suspend the cells in RPMI1640 culture medium for cell count and cell survival rate determination, and adjust cell concentration to 1×10^7/ml. Determination of anti-glucocorticoid activity: Add tested compound into culture medium, reaction concentration 6×10^−[…], and place in 37° C. incubator for 3 hours. Add thymus gland cells to make cell concentration to become 10^7/ml and incubate at 37° C. for 3 hours. Add 1 μCi of label substance, mix, and incubate for 1 hour. Add 100 μl of ice cold 5% trichloroacetic acid to end the reaction. Place the test tube on ice and wash twice with 2 ml of ice cold 5% trichloroacetic acid and centrifuge twice, 500 rpm×5 min, Add 0.5 ml of 1N NaOH to dissolve the precipitated cells, pipet out the liquid, dry the residue with cotton stick, place into same scintillation bottle, and determine the radioactivity by liquid scintillation counter.
Calculate the incorporation rate of [^3H]-TdR:
In which: T=[^3H]-TdR count without presence of compound, Td=count with presence of compound, and NSB=non-specific adsorption.
Inhibition rate=100%−incorporation rate

[5] = 50% toxic concentration CC50, Average
[6] = 50% toxic concentration CC50, Experiment 1
[7] = 50% toxic concentration CC50, Experiment 2

SMILES | EC50 ([1]; Average, PBMC) [µg/mL] | EC50 ([1]; Experiment 1, PBMC) [µg/mL] | EC50 ([1]; Experiment 2, PBMC) [µg/mL] | CC50 at 96 h [2, 5] [µg/mL] | CC50 at 96 h [2, 6] [µg/mL] | CC50 at 96 h [2, 7] [µg/mL] | EC50 ([3]; Average) [µg/mL] | EC50 ([3]; Experiment 1) [µg/mL] | EC50 ([3]; Experiment 2) [µg/mL] | also measured
Cc1cn([C@H]2C[C@H](N=[N+]=[N-])[C@@H](CO)O2)c(=O)[nH]c1=O [AZT, zidovudine] | < 0.0064 | < 0.0061 | < 0.0064 | 74.3 (≈ 278 µM) | 70.7 (≈ 265 µM) | 77.9 (≈ 291 µM) | 0.054 (≈ 0.202 µM) | 0.047 (≈ 0.176 µM) | 0.061 (≈ 0.228 µM) | SI ([1]; SI=CC50/EC50, Average): 10275.78; SI ([1]; SI=CC50/EC50, Experiment 1): 9193.75; SI ([1]; SI=CC50/EC50, Experiment 2): 11357.81; CC50 at 96 h (in vitro; 50% toxic concentration CC50): 58.8 µg/mL (≈ 220 µM); SI ([3]; Average): 1390.87; SI ([3]; Experiment 1): 1504.68; SI ([3]; Experiment 2): 1277.05
C[C@@H]1C[C@H]2[C@@H]3CCC4=CC(=O)C=C[C@]4(C)[C@@]3(F)[C@@H](O)C[C@]2(C)[C@@]1(O)C(=O)CO [Dexamethasone, dexamethasone] | – | – | – | – | – | – | – | – | – | inhibition at 0.0008 µM [4]: 14.7 ± 7.34%; inhibition at 0.0016 µM [4]: 10.4 ± 6.11%; inhibition at 0.004 µM [4]: 24.8 ± 5.92%; inhibition at 0.02 µM [4]: 39.4 ± 4.83%; inhibition at 0.1 µM [4]: 60.4 ± 5.67%; inhibition at 0.5 µM [4]: 89.2 ± 8.56%; Incorporation rate of [3H]-TdR (thymus gland cells): 43.2%±3.7
CC#C[C@]1(O)CC[C@H]2[C@@H]3CCC4=CC(=O)CCC4=C3[C@@H](c3ccc(N(C)C)cc3)C[C@@]21C [Mifepristone, mifepristone] | 12.4 (≈ 28.8 µM) | 12.4 (≈ 28.9 µM) | 12.4 (≈ 28.8 µM) | 89.9 (≈ 209 µM) | 105 (≈ 244 µM) | 74.7 (≈ 174 µM) | 10.1 (≈ 23.5 µM) | 10.4 (≈ 24.2 µM) | 9.84 (≈ 22.9 µM) | CC50 at 96 h (in vitro; 50% toxic concentration CC50, Average, PBMC, 018a): 83.6 µg/mL (≈ 195 µM); CC50 at 96 h (in vitro; 50% toxic concentration CC50, Experiment 1, PBMC, 018a): 69.4 µg/mL (≈ 162 µM); CC50 at 96 h (in vitro; 50% toxic concentration CC50, Experiment 2, PBMC, 018a): 97.8 µg/mL (≈ 228 µM)
